Results taken from ChEMBL document CHEMBL5030514, “Discovery of Anti-TNBC Agents Targeting PTP1B: Total Synthesis, Structure-Activity Relationship, In Vitro and In Vivo Investigations of Jamunones” (J Med Chem, 2021).

How the values were obtained:
MDA-MB-231 = experiment: Antiproliferative activity against human MDA-MB-231 cells measured by MTT assay; format: functional, cell-based
MCF7 = experiment: Antiproliferative activity against human MCF-7 cells measured by MTT assay; format: functional, cell-based

Row | SMILES | IC50 (MDA-MB-231) [µM] | IC50 (MCF7) [µM]
1 | CCCCCCCCCCCCCCCc1cc(=O)c2c(O)cc(O)cc2o1 | 6.79 | 17.5
2 | CCCC/C=C\CCCCCCCCCc1cc(=O)c2c(O)cc(O)cc2o1 | 6.79 | 17.5
3 | CCCCC/C=C\C/C=C\CCCCCCCc1cc(=O)c2c(O)cc(OCOC)cc2o1 | > 87 | > 67.3
4 | CCCC/C=C\CCCCCCCCCc1cc(=O)c2c(O)cc(OCOC)cc2o1 | > 87 | > 67.3
5 | CCCC/C=C\CCCCCCCCCc1cc(=O)c2c(O)c(C)c(OCOC)c(C)c2o1 | > 87 | > 67.3
6 | CCCCC/C=C\C/C=C\CCCCCCCc1cc(=O)c2c(O)c(C)c(OCOC)c(C)c2o1 | 16.1 | > 84.1
7 | CC/C=C\C/C=C\C/C=C\CCCCCCCc1cc(=O)c2c(O)c(C)c(OCOC)cc2o1 | 6.79 | 17.5
8 | CCCC/C=C\CCCCCCCCCc1cc(=O)c2c(O)c(C)c(O)cc2o1 | 42.8 | 43.2
9 | CCCCCCCCCCCCCCCc1cc(=O)c2c(O)c(C)c(OCOC)c(C)c2o1 | > 87 | > 67.3
10 | CC/C=C\C/C=C\C/C=C\CCCCCCCc1cc(=O)c2c(O)cc(O)cc2o1 | 6.79 | 17.5
11 | CC/C=C\C/C=C\C/C=C\CCCCCCCC1(O)CC(=O)c2c(O)cc(O)cc2O1 (stereo not given) | 6.79 | 17.5
12 | CCCCC/C=C\C/C=C\CCCCCCCc1cc(=O)c2c(O)cc(O)cc2o1 | 6.79 | 17.5
13 | CC/C=C\C/C=C\C/C=C\CCCCCCCc1cc(=O)c2c(O)cc(OCOC)c(C)c2o1 | 6.79 | 17.5
14 | CCCCCCCCCCCCCCCc1cc(=O)c2c(O)c(C)c(O)c(C)c2o1 | > 87 | > 67.3
15 | CCCC/C=C/CCCCCCCCCC1(O)CC(=O)c2c(O)cc(O)cc2O1 (stereo not given) | 18.7 | 33.9
16 | CCCCCCCCCCCCCCCC1(O)CC(=O)c2c(O)cc(OCOC)cc2O1 (stereo not given) | > 87 | > 67.3
17 | CC/C=C\C/C=C\C/C=C\CCCCCCCC1(O)CC(=O)c2c(O)c(C)c(O)c(C)c2O1 (stereo not given) | 42.8 | 43.2
18 | CC/C=C\C/C=C\C/C=C\CCCCCCCc1cc(=O)c2c(O)cc(O)c(C)c2o1 | 6.79 | 17.5
19 | CCCC/C=C\CCCCCCCCCC1(O)CC(=O)c2c(O)cc(OCOC)cc2O1 (stereo not given) | 42.8 | 43.2
20 | CCCCCCCCCCCC1(O)CC(=O)c2c(O)cc(O)cc2O1 (stereo not given) | 42.8 | 43.2
21 | CCCC/C=C\CCCCCCCCCc1cc(=O)c2c(O)c(C)c(OCOC)cc2o1 | > 87 | > 67.3
22 | CCCCCCCCCCCCCCCc1cc(=O)c2c(O)cc(OCOC)c(C)c2o1 | > 87 | > 67.3
23 | CCCCCCCCCCCCCCCC1(O)CC(=O)c2c(O)c(C)c(O)c(C)c2O1 (stereo not given) | 16.1 | > 100

Row | SMILES | IC50 (MDA-MB-231) [µM] | IC50 (MCF7) [µM]
24 | CC/C=C\C/C=C\C/C=C\CCCCCCCc1cc(=O)c2c(O)c(C)c(O)cc2o1 | 6.79 | 17.5
25 | CCCC/C=C\CCCCCCCCCc1cc(=O)c2c(O)cc(O)c(C)c2o1 | 6.79 | 17.5
26 | CC/C=C\C/C=C\C/C=C\CCCCCCCc1cc(=O)c2c(O)c(C)c(OCOC)c(C)c2o1 | 16.1 | > 84.1
27 | CCCCC/C=C\C/C=C\CCCCCCCC1(O)CC(=O)c2c(O)cc(O)cc2O1 (stereo not given) | 6.79 | 17.5
28 | CCCCCCCCCCCCCCCC1(O)CC(=O)c2c(O)cc(O)cc2O1 (stereo not given) | 6.79 | 17.5
29 | CCCCCCCCCCCCCCCc1cc(=O)c2c(O)c(C)c(OCOC)cc2o1 | > 87 | > 67.3
30 | CCCCC/C=C\C/C=C\CCCCCCCc1cc(=O)c2c(O)c(C)c(O)c(C)c2o1 | 16.1 | > 84.1
31 | CC/C=C\C/C=C\C/C=C\CCCCCCCc1cc(=O)c2c(O)c(C)c(O)c(C)c2o1 | 6.79 | 17.5
32 | CC/C=C\C/C=C\C/C=C\CCCCCCCc1cc(=O)c2c(O)cc(OCOC)cc2o1 | 6.79 | 17.5
33 | CCCCC/C=C\C/C=C\CCCCCCCc1cc(=O)c2c(O)c(C)c(OCOC)cc2o1 | > 87 | > 67.3
34 | CCCCC1(O)CC(=O)c2c(O)cc(O)cc2O1 (stereo not given) | > 87 | > 67.3
35 | CC/C=C\C/C=C\C/C=C\CCCCCCCC1(O)CC(=O)c2c(O)cc(OCOC)cc2O1 (stereo not given) | 6.79 | 17.5
36 | CCCC/C=C\CCCCCCCCCc1cc(=O)c2c(O)cc(OCOC)c(C)c2o1 | > 87 | > 67.3
37 | CCCCC/C=C\C/C=C\CCCCCCCC1(O)CC(=O)c2c(O)cc(OCOC)cc2O1 (stereo not given) | 16.1 | > 84.1
38 | CCCCC/C=C\C/C=C\CCCCCCCC1(O)CC(=O)c2c(O)c(C)c(O)c(C)c2O1 (stereo not given) | 42.8 | 43.2
39 | CCCC/C=C\CCCCCCCCCc1cc(=O)c2c(O)c(C)c(O)c(C)c2o1 | > 87 | > 67.3
40 | CCCCC/C=C\C/C=C\CCCCCCCc1cc(=O)c2c(O)c(C)c(O)cc2o1 | 16.1 | > 84.1
41 | CCCCCCCCCCCCCCCc1cc(=O)c2c(O)c(C)c(O)cc2o1 | 42.8 | 43.2
42 | CCCCCCCCCCCCCCCc1cc(=O)c2c(O)cc(O)c(C)c2o1 | 6.79 | 17.5
43 | CCCCC/C=C\C/C=C\CCCCCCCc1cc(=O)c2c(O)cc(O)c(C)c2o1 | 6.79 | 17.5
44 | CCCCCCCCCCCCCCCCCCCC1(O)CC(=O)c2c(O)cc(O)cc2O1 (stereo not given) | > 87 | > 67.3
45 | CCCCC/C=C\C/C=C\CCCCCCCc1cc(=O)c2c(O)cc(OCOC)c(C)c2o1 | 16.1 | > 84.1
